According to US20110003751A1, “Novel Immunoregulatory Peptides, Compositions and Uses Thereof” (priority 2007, published 2011):

System: CFU-S regeneration in the bone marrow of 1-Gy irradiated mice
Assay: Stimulation of CFU-S regeneration in bone marrow of 1-Gy irradiated mice (spleen colony count)
Assay type: in vivo
Procedure: Test animals were irradiated with ^60Co gamma-rays at a dose rate of 0.8 Gy per min. Bone marrow recipients were irradiated with a dose of 8 Gy; donors were irradiated with a dose of […]. The suspension of bone marrow cells of intact animals was irradiated with 1 Gy, 5-10 min prior to injection to lethally irradiated recipients.
Stimulation of CFU-S regeneration in the bone marrow of 1-Gy irradiated mice was studied with different routes of administration of the peptides.
For this purpose, at least 5 mice from each group were killed and their bone marrow was obtained. Cell suspension was prepared and injected to lethally irradiated mice. After 9 days, spleen colonies were counted to determine the CFU-S content in 1-Gy irradiated donors who received the peptide.

[1] = per os (oral gavage), 100 ug/kg, 30 min after injection of bone marrow suspension, average of two tests
[2] = intraperitoneally, 100 ug/kg, 30 min after injection of bone marrow suspension, average of two tests

| Substance | Colony count [1] | Activity % (per os, 100 ug/kg) | Stimulation index (per os, 100 ug/kg) | % stimulation (IP, 10 ug/kg) | Colony count (IP, 10 ug/kg) | % stimulation (IP, 100 ug/kg (Table 4)) | Colony count (IP, 100 ug/kg (Table 4)) | % stimulation (IP, 1000 ug/kg) | Colony count (IP, 1000 ug/kg) | Activity % (intraperitoneally, 100 ug/kg) | Stimulation index (intraperitoneally, 100 ug/kg) | Colony count [2] | % stimulation (per/os, 100 ug/kg (Table 4)) | Colony count (per/os, 100 ug/kg (Table 4)) | % stimulation (per/os, 1000 ug/kg) | Colony count (per/os, 1000 ug/kg) | % stimulation (per/os, 10 ug/kg) | Colony count (per/os, 10 ug/kg) |
| --- | --- | --- | --- | --- | --- | --- | --- | --- | --- | --- | --- | --- | --- | --- | --- | --- | --- | --- |
| H-L-Ile-D-Glu-D-Trp-OH [reference compound] | 5.8 ± 0.3 | 0% | 0 |  |  |  |  |  |  |  |  |  |  |  |  |  |  |  |
| H-L-Ile-L-Glu-L-Trp-OH [reference compound] | 5.6 ± 0.5 | 0% | 0 | 82% | 9.7 ± 0.4 | 81% | 9.6 ± 0.7 | 100% | 11.8 ± 00.9 | 80% | 0.8 | 8.2 ± 0.5 | 0% | 6.7 ± 0.5 | 0% | 6.1 ± 00.3 |  |  |
| H-L-Ile-γ-Glu-L-Trp-OH | 8.6 ± 0.7 | 83% | 0.8 | 64% | 7.6 ± 0.7 | 69% | 8.2 ± 00.4 | 87% | 10.4 ± 00.6 | 84% | 0.8 | 8.6 ± 0.7 | 70% | 8.3 ± 0.4 | 90% | 10.7 ± 00.8 | 0% | 6.9 ± 0.7 |
| H-L-Leu-L-Glu-L-Trp-OH [reference compound] | 6.2 ± 0.3 | 0% | 0 |  |  |  |  |  |  | 74% | 0.7 | 7.6 ± 0.7 |  |  |  |  |  |  |
| H-L-Leu-L-γ-Glu-L-Trp-OH | 6.7 ± 0.7 | 67% | 0.7 |  |  |  |  |  |  | 69% | 0.7 | 6.9 ± 0.6 |  |  |  |  |  |  |
| H-L-Trp-L-Glu-L-Ile-OH [reference compound] | 5.9 ± 0.8 | 0% | 0 |  |  |  |  |  |  | 79% | 0.8 | 8.1 ± 1.0 |  |  |  |  |  |  |
| H-L-γ-Glu-D-Trp-L-Ile-OH | 6.8 ± 0.5 | 66% | 0.7 |  |  |  |  |  |  | 61% | 0.6 | 6.2 ± 0.5 |  |  |  |  |  |  |
| H-L-γ-Glu-L-Trp-L-Ile-OH | 7.7 ± 0.6 | 75% | 0.7 |  |  |  |  |  |  | 73% | 0.7 | 7.5 ± 0.5 |  |  |  |  |  |  |
